The assay concerns the target T1, human plasma renin (Homo sapiens, UniProt P00797).
T1 construct: human plasma renin activity; from tissue; host or cells: human plasma
T1 sequence (P00797 67-406): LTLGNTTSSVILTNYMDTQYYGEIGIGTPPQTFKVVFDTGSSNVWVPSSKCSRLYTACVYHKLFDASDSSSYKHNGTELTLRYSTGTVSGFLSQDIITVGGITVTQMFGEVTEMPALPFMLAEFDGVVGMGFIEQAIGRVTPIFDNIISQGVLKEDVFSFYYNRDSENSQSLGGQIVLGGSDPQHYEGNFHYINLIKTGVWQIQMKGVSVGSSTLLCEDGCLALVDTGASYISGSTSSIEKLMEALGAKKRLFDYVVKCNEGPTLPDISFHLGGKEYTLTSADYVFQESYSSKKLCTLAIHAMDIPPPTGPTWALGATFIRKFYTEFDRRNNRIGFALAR
The assay can be described thus: inhibitory action on the human plasma renin activity. The conditions noted are these: pH=6, method of European patent application No. 104,964, read-out: IC50 (dose of compound under study which causes 50% inhibition of the human plasma renin activity). The assay is classed as biochemical. An excerpt:
The peptide so obtained was studied for determining its inhibitory action on the human plasma renin activity using the method described in European patent application No. 104,964.

By IC50 is commonly meant the concentration at which inhibition is half-maximal.

With “BOC-Phe-Nle-APHBA-Ala-Sta-OCH3 [SR 44205]”, the IC50 was determined as 1000 nM.

Source of the values: patent US4814485A, “4-aminobutanoic acid derivatives, process of preparation and use thereof” (Sanofi, priority 1985, dated 1989).
